Assay results reported in patent US9421209B2, “Kinase modulators” (Rhizen Pharmaceuticals SA, priority 2009, dated 2016).

Key:
[1] = target: P110 δ/Pi3K δ (Homo sapiens, UniProt O00329); assay: Fluorescent (HTRF) determination of PI3K enzyme activity, δ isoform; format: biochemical; conditions: for IC50: read-out: P110 δ/Pi3K δ IC 50 nM
Source text: Assay 1: Fluorescent determination of PI3Kinase Kinase enzyme activity
Phosphoinositide 3 kinases (PI3K) belong to a class of lipid kinases that play a critical role in the regulation of several key cellular processes. The PI3K are capable of phosphorylating the 3-hydroxy position of phosphoinositols thereby generating second messengers involved in downstream signalling events. The homogenous time resolved fluorescence (HTRF) assay allows detection of 3,4,5-triphosphate (PIP3) formed as a result of phosphorylation of phosphotidylinositol 4,5-biphosphate (PIP2) by PI3K isoforms such as α, β, γ or δ.
PI3K isoform activity for α, β, γ or δ was determined using a PI3K human HTRF™ Assay Kit (Millipore, Billerica, Mass.) with modifications. All incubations were carried out at room temperature. […] After the initial incubation, 5 μl/well of 400 μM ATP was added and incubated for an additional 30 minutes. Reaction was terminated by adding 5 μl/well stop solution (Millipore, Billerica, Mass.). Five microliters of detection mix (Millipore, Billerica, Mass.) were then added to each well and was incubated for 6-18 h in the dark. […] Data were analyzed using Graphpad Prism (Graphpad software; San Diego Calif.) for IC50 determination. Percent inhibition was calculated based on the values for the blank and enzyme controls.

Sequence of P110 δ/Pi3K δ (O00329 whole entry, canonical isoform): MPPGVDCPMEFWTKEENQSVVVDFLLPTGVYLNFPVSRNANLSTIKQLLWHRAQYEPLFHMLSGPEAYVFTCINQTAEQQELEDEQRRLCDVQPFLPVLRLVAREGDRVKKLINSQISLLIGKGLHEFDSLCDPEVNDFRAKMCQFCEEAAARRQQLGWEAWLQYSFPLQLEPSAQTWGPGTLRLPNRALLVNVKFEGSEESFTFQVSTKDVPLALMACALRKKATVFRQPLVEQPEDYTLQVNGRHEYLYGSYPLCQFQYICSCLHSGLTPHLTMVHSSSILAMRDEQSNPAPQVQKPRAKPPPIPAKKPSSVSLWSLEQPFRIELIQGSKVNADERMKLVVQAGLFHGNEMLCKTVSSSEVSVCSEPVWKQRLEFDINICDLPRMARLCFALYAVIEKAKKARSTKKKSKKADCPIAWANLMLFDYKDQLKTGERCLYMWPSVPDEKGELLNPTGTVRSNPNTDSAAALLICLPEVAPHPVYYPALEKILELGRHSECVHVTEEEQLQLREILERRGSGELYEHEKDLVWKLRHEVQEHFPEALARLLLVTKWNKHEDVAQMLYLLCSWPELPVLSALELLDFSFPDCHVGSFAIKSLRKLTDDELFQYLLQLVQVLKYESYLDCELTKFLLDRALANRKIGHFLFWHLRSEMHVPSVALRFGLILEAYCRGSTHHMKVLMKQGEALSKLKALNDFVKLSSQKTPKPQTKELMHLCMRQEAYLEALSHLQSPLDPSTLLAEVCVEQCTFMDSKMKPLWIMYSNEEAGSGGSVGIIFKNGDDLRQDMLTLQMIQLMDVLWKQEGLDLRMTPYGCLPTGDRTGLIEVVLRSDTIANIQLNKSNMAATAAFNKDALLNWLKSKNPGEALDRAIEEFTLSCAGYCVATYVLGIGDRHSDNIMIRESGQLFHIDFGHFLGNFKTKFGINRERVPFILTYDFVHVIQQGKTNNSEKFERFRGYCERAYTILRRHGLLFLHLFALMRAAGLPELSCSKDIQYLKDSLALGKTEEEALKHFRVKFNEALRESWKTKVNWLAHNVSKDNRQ
Sequence of P110 δ/Pi3K δ (P27986 whole entry partner, canonical isoform): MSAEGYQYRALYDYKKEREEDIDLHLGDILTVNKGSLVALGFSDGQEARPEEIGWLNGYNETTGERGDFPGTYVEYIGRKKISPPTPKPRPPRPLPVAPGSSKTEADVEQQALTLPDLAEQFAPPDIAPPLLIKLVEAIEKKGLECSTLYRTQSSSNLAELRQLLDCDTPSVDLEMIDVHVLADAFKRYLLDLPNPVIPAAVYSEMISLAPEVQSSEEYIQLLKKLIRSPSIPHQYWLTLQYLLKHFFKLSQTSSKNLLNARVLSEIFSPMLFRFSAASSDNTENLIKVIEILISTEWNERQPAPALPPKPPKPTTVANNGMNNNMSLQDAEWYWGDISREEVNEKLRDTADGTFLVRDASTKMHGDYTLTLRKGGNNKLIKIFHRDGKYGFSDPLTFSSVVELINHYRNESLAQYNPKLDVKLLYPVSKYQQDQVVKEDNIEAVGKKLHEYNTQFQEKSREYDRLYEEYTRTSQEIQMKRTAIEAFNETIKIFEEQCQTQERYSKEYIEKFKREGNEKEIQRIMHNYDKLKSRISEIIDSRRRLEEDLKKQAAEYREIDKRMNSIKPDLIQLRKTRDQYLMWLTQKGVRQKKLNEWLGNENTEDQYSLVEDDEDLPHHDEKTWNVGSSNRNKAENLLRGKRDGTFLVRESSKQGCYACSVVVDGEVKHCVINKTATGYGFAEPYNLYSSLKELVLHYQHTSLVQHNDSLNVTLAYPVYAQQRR

| SMILES | melting point [°C] | inhibition at 1 µM [1] [%] | IC50 [1] [nM] |
| --- | --- | --- | --- |
| Cc1ccccc1-c1c(C(C)n2cnc3c(N)ncnc32)oc2ccccc2c1=O (stereo not shown) [Example 44, 2-(1-(6-Amino-9H-purin-9-yl)ethyl)-3-o-tolyl-4H-chromen-4-one] | 202 to 205 | 50 to 100 | – |
| O=c1c(-c2ccccc2F)c(CNc2ncnc3[nH]cnc23)oc2ccccc12 [Example 45, 2-((9H-purin-6-ylamino)methyl)-3-(2-fluorophenyl)-4H-chromen-4-one] | 143 to 147 | < 50 | – |
| O=c1c(-c2cccc(F)c2)c(CNc2ncnc3[nH]cnc23)oc2ccccc12 [Example 46, 2-((9H-purin-6-ylamino)methyl)-3-(3-fluorophenyl)-4H-chromen-4-one] | 211 to 214 | < 50 | – |
| CC(c1oc2ccc(F)cc2c(=O)c1-c1ccccc1F)n1cnc2c(N)ncnc21 (stereo not shown) [Example 48, 2-(1-(6-amino-9H-purin-9-yl)ethyl)-6-fluoro-3-(2-fluorophenyl)-4H-chromen-4-one] | 245 to 248 | < 50 | – |
| CC(c1oc2ccccc2c(=O)c1-c1cc(F)cc(F)c1)n1cnc2c(N)ncnc21 (stereo not shown) [Example 49, 2-(1-(6-Amino-9H-purin-9-yl)ethyl)-3-(3,5-difluorophenyl)-4H-chromen-4-one] | 267 to 269 | < 50 | – |
| CC(c1oc2ccc(F)cc2c(=O)c1-c1cccc(F)c1)n1cnc2c(N)ncnc21 (stereo not shown) [Example 50, 2-(1-(6-amino-9H-purin-9-yl)ethyl)-6-fluoro-3-(3-fluorophenyl)-4H-chromen-4-one] | 252 to 255 | 50 to 100 | – |
| CC(c1oc2ccccc2c(=O)c1-c1cccc(F)c1)n1nc(-c2cccc(O)c2)c2c(N)ncnc21 (stereo not shown) [Example 51a, 2-(1-(4-amino-3-(3-hydroxyphenyl)-1H-pyrazolo[3,4-d]pyrimidin-1-yl)ethyl)-3-(3-fluorophenyl)-4H-chromen-4-one] | 282 to 285 | 50 to 100 | < 250 |
| COc1cccc(-c2nn(Cc3oc4ccccc4c(=O)c3-c3ccccc3)c3ncnc(N)c23)c1 [Example 52, 2-((4-Amino-3-(3-methoxyphenyl)-1H-pyrazolo[3,4-d]pyrimidin-1-yl)methyl)-3-phenyl-4H-chromen-4-one] | 111 to 115 | < 50 | – |
| COc1cccc(-c2nn(Cc3oc4ccccc4c(=O)c3-c3cccc(F)c3)c3ncnc(N)c23)c1 [Example 54, 2-((4-amino-3-(3-methoxyphenyl)-1H-pyrazolo[3,4-d]pyrimidin-1-yl)methyl)-3-(3-fluorophenyl)-4H-chromen-4-one] | 175 to 178 | < 50 | – |
| C[C@@H](Nc1ncnc2[nH]cnc12)c1oc2ccccc2c(=O)c1-c1cccc(F)c1 [Example 56, (R)-2-(1-(9H-purin-6-ylamino)ethyl)-3-(3-fluorophenyl)-4H-chromen-4-one] | 274 to 276 | < 50 | – |
| Nc1ncnc2c1c(-c1cccnc1)nn2Cc1oc2ccccc2c(=O)c1-c1ccccc1 [Example 58, 2-((4-amino-3-(pyridin-3-yl)-1H-pyrazolo[3,4-d]pyrimidin-1-yl)methyl)-3-phenyl-4H-chromen-4-one] | 253 to 255 | < 50 | – |
| Nc1ncnc2c1c(C#CCO)nn2Cc1oc2ccccc2c(=O)c1-c1ccccc1 [Example 59, 2-((4-amino-3-(3-hydroxyprop-1-ynyl)-1H-pyrazolo[3,4-d]pyrimidin-1-yl)methyl)-3-phenyl-4H-chromen-4-one] | 171 to 173 | 50 to 100 | 250 to 500 |
| Nc1ncnc2c1c(-c1cn[nH]c1)nn2Cc1oc2ccccc2c(=O)c1-c1ccccc1 [Example 60, 2-((4-amino-3-(1H-pyrazol-4-yl)-1H-pyrazolo[3,4-d]pyrimidin-1-yl)methyl)-3-phenyl-4H-chromen-4-one] | 235 to 237 | 50 to 100 | < 250 |
| Nc1ncnc2c1c(-c1cccc(CO)c1)nn2Cc1oc2ccccc2c(=O)c1-c1ccccc1 [Example 61, 2-((4-amino-3-(3-(hydroxymethyl)phenyl)-1H-pyrazolo[3,4-d]pyrimidin-1-yl)methyl)-3-phenyl-4H-chromen-4-one] | 219 to 223 | < 50 | – |
| Nc1ncnc2c1c(-c1cccc3[nH]ncc13)nn2Cc1oc2ccccc2c(=O)c1-c1ccccc1 [Example 62, 2-((4-amino-3-(1H-indazol-4-yl)-1H-pyrazolo[3,4-d]pyrimidin-1-yl)methyl)-3-phenyl-4H-chromen-4-one] | 248 to 252 | < 50 | – |
| Nc1ncnc2c1c(-c1cccc(F)c1)nn2Cc1oc2ccccc2c(=O)c1-c1ccccc1 [Example 63, 2-((4-amino-3-(3-fluorophenyl)-1H-pyrazolo[3,4-d]pyrimidin-1-yl)methyl)-3-phenyl-4H-chromen-4-one] | 244 to 247 | < 50 | – |
| Nc1ncnc2c1c(CCCO)nn2Cc1oc2ccccc2c(=O)c1-c1ccccc1 [Example 64, 2-((4-amino-3-(3-hydroxypropyl)-1H-pyrazolo[3,4-d]pyrimidin-1-yl)methyl)-3-phenyl-4H-chromen-4-one] | 182 to 184 | < 50 | – |
| CC(=O)Nc1cccc(-c2nn(Cc3oc4ccccc4c(=O)c3-c3ccccc3)c3ncnc(N)c23)c1 [Example 65, N-(3-(4-amino-1-((4-oxo-3-phenyl-4H-chromen-2-yl)methyl)-1H-pyrazolo[3,4-d]pyrimidin-3-yl)phenyl)acetamide] | 122 to 123 | < 50 | – |
| Nc1ncnc2c1c(-c1cc(O)cc(F)c1)nn2Cc1oc2ccccc2c(=O)c1-c1ccccc1 [Example 66a, 2-((4-amino-3-(3-fluoro-5-hydroxyphenyl)-1H-pyrazolo[3,4-d]pyrimidin-1-yl)methyl)-3-phenyl-4H-chromen-4-one] | 260 to 262 | 50 to 100 | < 250 |
| COc1cc(F)cc(-c2nn(Cc3oc4ccccc4c(=O)c3-c3cccc(F)c3)c3ncnc(N)c23)c1 [Example 67, 2-((4-amino-3-(3-fluoro-5-methoxyphenyl)-1H-pyrazolo[3,4-d]pyrimidin-1-yl)methyl)-3-(3-fluorophenyl)-4H-chromen-4-one] | 115 to 117 | < 50 | – |
| CC(c1oc2ccccc2c(=O)c1-c1ccccc1)n1nc(-c2cn[nH]c2)c2c(N)ncnc21 (stereo not shown) [Example 69, 2-(1-(4-amino-3-(1H-pyrazol-4-yl)-1H-pyrazolo[3,4-d]pyrimidin-1-yl)ethyl)-3-phenyl-4H-chromen-4-one] | 214 to 217 | 50 to 100 | – |
| CC(c1oc2ccccc2c(=O)c1-c1ccccc1)n1nc(-c2ccc3cn[nH]c3c2)c2c(N)ncnc21 (stereo not shown) [Example 70, 2-(1-(4-amino-3-(1H-indazol-6-yl)-1H-pyrazolo[3,4-d]pyrimidin-1-yl)ethyl)-3-phenyl-4H-chromen-4-one] | 176 to 178 | 50 to 100 | – |
| CC(c1oc2ccccc2c(=O)c1-c1ccccc1)n1nc(C#CC(C)(C)O)c2c(N)ncnc21 (stereo not shown) [Example 71, 2-(1-(4-amino-3-(3-hydroxy-3-methylbut-1-ynyl)-1H-pyrazolo[3,4-d]pyrimidin-1-yl)ethyl)-3-phenyl-4H-chromen-4-one] | 109 to 113 | < 50 | – |
| CC(c1oc2ccccc2c(=O)c1-c1cccc(F)c1)n1nc(-c2cn[nH]c2)c2c(N)ncnc21 (stereo not shown) [Example 72, 2-(1-(4-amino-3-(1H-pyrazol-4-yl)-1H-pyrazolo[3,4-d]pyrimidin-1-yl)ethyl)-3-(3-fluorophenyl)-4H-chromen-4-one] | 223 to 226 | 50 to 100 | < 250 |
| C[C@H](Nc1ncnc2[nH]cnc12)c1oc2ccccc2c(=O)c1-c1ccccc1 [Example 73, (S)-2-(1-(9H-purin-6-ylamino)ethyl)-3-phenyl-4H-chromen-4-one] | 135 to 138 | 50 to 100 | – |
| Nc1ncnc2c1c(-c1ccc3cn[nH]c3c1)nn2Cc1oc2ccccc2c(=O)c1-c1ccccc1 [Example 75, 2-((4-amino-3-(1H-indazol-6-yl)-1H-pyrazolo[3,4-d]pyrimidin-1-yl)methyl)-3-phenyl-4H-chromen-4-one] | 140 to 143 | 50 to 100 | – |
| CC(c1oc2ccccc2c(=O)c1-c1cccc(F)c1)n1nc(-c2cc(O)cc(F)c2)c2c(N)ncnc21 (stereo not shown) [Example 76a, 2-(1-(4-amino-3-(3-fluoro-5-hydroxyphenyl)-1H-pyrazolo[3,4-d]pyrimidin-1-yl)ethyl)-3-(3-fluorophenyl)-4H-chromen-4-one] | 271 to 273 | 50 to 100 | – |
| CC(c1oc2ccccc2c(=O)c1-c1cccc(F)c1)n1nc(-c2cccc3[nH]ncc23)c2c(N)ncnc21 (stereo not shown) [Example 77, 2-(1-(4-amino-3-(1H-indazol-4-yl)-1H-pyrazolo[3,4-d]pyrimidin-1-yl)ethyl)-3-(3-fluorophenyl)-4H-chromen-4-one] | 231 to 233 | 50 to 100 | – |
